Measured values: BindingDB's records for doi:10.1016/j.bmcl.2013.03.113 (Vanderbilt University Medical Center, 2013)

Target: T1, Bone morphogenetic protein 4 (Mus musculus, UniProt P21275)
T1 sequence (P21275 whole entry): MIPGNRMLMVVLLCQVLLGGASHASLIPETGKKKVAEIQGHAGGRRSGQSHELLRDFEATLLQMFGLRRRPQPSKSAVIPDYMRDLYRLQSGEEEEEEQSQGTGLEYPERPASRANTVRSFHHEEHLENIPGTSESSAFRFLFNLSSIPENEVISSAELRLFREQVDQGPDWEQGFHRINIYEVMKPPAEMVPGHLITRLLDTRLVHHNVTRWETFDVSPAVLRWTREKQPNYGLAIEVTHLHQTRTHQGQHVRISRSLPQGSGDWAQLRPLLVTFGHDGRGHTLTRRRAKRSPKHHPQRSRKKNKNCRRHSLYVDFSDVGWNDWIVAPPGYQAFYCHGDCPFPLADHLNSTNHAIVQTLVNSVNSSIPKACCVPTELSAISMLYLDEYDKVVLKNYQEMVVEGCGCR
Assay: Inhibition of BMP4 in mouse C2C12BRA cells after 14 hrs by luciferase reporter gene assay

IC50 [nM] | Structure (SMILES)
529 | Clc1cc(-c2cnn3cc(-c4ccc(N5CCOCC5)cc4)cnc23)ccn1
418 | c1ccc2c(-c3cnn4cc(-c5ccc(N6CCOCC6)cc5)cnc34)csc2c1
